# In patent US8455533B2, “Aminotetrahydropyrans as dipeptidyl peptidase-IV inhibitors for the treatment or prevention of diabetes” (Merck Sharp & Dohme Corp., priority 2009, dated 2013):
# Structures can show the parent of a compound that is named as a salt.
# Target: T1, dipeptidyl peptidase-IV enzyme (DPP-4) (Homo sapiens, UniProt P27487)
# T1 construct: The enzyme used in these studies was soluble (transmembrane domain and cytoplasmic extension excluded) human protein; made in house; host or cells: baculovirus expression system (Bac-To-Bac, Gibco BRL)
# Experiment: DPP-4 inhibition, continuous fluorometric assay with substrate Gly-Pro-AMC
# Type: biochemical
# Settings: soluble human DPP-4, 50 μM Gly-Pro-AMC, pH 7.5, room temperature
# Method: Inhibition constants are determined as follows. A continuous fluorometric assay is employed with the substrate Gly-Pro-AMC, which is cleaved by DPP-4 to release the fluorescent AMC leaving group. […] A typical reaction contains approximately 50 pM enzyme, 50 μM Gly-Pro-AMC, and buffer (100 mM HEPES, pH 7.5, 0.1 mg/mL BSA) in a total reaction volume of 100 μL. Liberation of AMC is monitored continuously in a 96-well plate fluorometer using an excitation wavelength of 360 nm and an emission wavelength of 460 nm. Under these conditions, approximately 0.8 μM AMC is produced in 30 min at 25 degrees C. The enzyme used in these studies was soluble (transmembrane domain and cytoplasmic extension excluded) human protein produced in a baculovirus expression system (Bac-To-Bac, Gibco BRL). […] To measure the dissociation constants for compounds, solutions of inhibitor in DMSO were added to reactions containing enzyme and substrate (final DMSO concentration is 1%). All experiments were conducted at room temperature using the standard reaction conditions described above. To determine the dissociation constants (Ki), reaction rates were fit by non-linear regression to the Michaelis-Menton equation for competitive inhibition. The errors in reproducing the dissociation constants are typically less than two-fold.
# T1 sequence (P27487 29-766 limits assumed): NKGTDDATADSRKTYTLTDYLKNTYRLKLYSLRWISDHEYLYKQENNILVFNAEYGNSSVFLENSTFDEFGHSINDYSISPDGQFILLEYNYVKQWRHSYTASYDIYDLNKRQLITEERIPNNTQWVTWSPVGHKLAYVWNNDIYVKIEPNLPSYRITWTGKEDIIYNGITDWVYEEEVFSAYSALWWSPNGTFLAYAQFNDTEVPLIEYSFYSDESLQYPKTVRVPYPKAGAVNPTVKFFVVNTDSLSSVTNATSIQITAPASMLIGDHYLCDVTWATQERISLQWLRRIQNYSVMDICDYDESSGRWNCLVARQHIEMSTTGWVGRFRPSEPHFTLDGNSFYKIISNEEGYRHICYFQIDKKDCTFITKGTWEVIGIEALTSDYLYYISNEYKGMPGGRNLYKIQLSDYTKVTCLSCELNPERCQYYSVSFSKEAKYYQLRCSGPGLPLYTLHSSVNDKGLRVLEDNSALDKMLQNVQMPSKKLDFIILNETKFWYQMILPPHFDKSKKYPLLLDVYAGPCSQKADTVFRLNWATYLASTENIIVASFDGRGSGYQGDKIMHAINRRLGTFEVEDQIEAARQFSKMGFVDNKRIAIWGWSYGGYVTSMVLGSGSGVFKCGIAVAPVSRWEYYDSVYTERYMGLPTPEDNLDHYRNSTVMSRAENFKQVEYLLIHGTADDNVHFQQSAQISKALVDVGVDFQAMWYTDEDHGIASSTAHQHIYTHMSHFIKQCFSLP
row,Compound,IC50 [nM]
1,"NC(=O)Cn1cc2c(n1)CN([C@H]1CO[C@H](c3cc(F)ccc3F)[C@@H](N)C1)C2 [Example 1, 2-{5-[(3R,5S,6R)-5-amino-6-(2,5-difluorophenyl)tetrahydro-2H-pyran-3-yl]-5,6-dihydropyrrolo[3,4-c]pyrazol-2(4H)-yl}acetamide]",6.8
2,"COC(=O)Cn1cc2c(n1)CN([C@H]1CO[C@H](c3cc(F)ccc3F)[C@@H](N)C1)C2 [Example 2, Methyl {5-[(3R,5S,6R)-5-amino-6-(2,5-difluorophenyl)tetrahydro-2H-pyran-3-yl]-5,6-dihydropyrrolo[3,4-c]pyrazol-2(4B)-yl}acetate]",8.1
3,"N[C@H]1C[C@@H](N2Cc3cn(CC(=O)O)nc3C2)CO[C@@H]1c1cc(F)ccc1F [Example 3, {5-[(3R,5S,6R)-5-amino-6-(2,5-difluorophenyl)tetrahydro-2H-pyran-3-yl]-5,6-dihydropyrrolo[3,4-c]pyrazol-2(4H)-yl}acetic acid hydrochloride salt]",9.4
4,"N[C@H]1C[C@@H](N2Cc3cn(CCO)nc3C2)CO[C@@H]1c1cc(F)ccc1F [Example 4, 2-{5-[(3R,5S,6R)-5-amino-6-(2,5-difluorophenyl)tetrahydro-2H-pyran-3-yl]-5,6-dihydropyrrolo[3,4-c]pyrazol-2(4H)-yl}ethanol]",11
5,"CC(C)(O)Cn1cc2c(n1)CN([C@H]1CO[C@H](c3cc(F)ccc3F)[C@@H](N)C1)C2 [Example 5, 1-{5-[(3R,5S,6R)-5-amino-6-(2,5-difluorophenyl)tetrahydro-2H-pyran-3-yl]-5,6-dihydropyrrolo[3,4-c]pyrazol-2(4H)-yl}-2-methylpropan-2-ol]",9.3
6,"CC(C)(O)Cn1ncc2c1CN([C@H]1CO[C@H](c3cc(F)ccc3F)[C@@H](N)C1)C2 [Example 6, 1-{5-[(3R,5S,6R)-5-amino-6-(2,5-difluorophenyl)tetrahydro-2H-pyran-3-yl]-5,6-dihydropyrrolo-[3,4-c]pyrazol-1(4H)-yl}-2-methylpropan-2-ol]",4
7,NC(=O)Cn1ncc2c1CN([C@H]1CO[C@H](c3cc(F)ccc3F)[C@@H](N)C1)C2 [Example 7],7.5
8,NC(=O)Cn1cc2c(n1)CN([C@H]1CO[C@H](c3cc(F)c(F)cc3F)[C@@H](N)C1)C2 [Example 8],8.9
9,NC(=O)Cn1ncc2c1CN([C@H]1CO[C@H](c3cc(F)c(F)cc3F)[C@@H](N)C1)C2 [Example 9],7.4
10,COC(=O)Cn1cc2c(n1)CN([C@H]1CO[C@H](c3cc(F)c(F)cc3F)[C@@H](N)C1)C2 [Example 10],12
11,CC(C)(O)Cn1ncc2c1CN([C@H]1CO[C@H](c3cc(F)c(F)cc3F)[C@@H](N)C1)C2 [Example 12],9.2
12,N#Cc1[nH]nc2c1CN([C@H]1CO[C@H](c3cc(F)ccc3F)[C@@H](N)C1)C2 [Example 13],0.89
13,N[C@H]1C[C@@H](N2Cc3n[nH]c(-c4nnn[nH]4)c3C2)CO[C@@H]1c1cc(F)ccc1F [Example 14],0.6

# System: cardiac allograft survival
# Experiment: not given
# Settings: rats; survival from day 7 to day 14; Transplantation 63:1495-1500 (1997); cited from earlier work
row,Compound,cardiac allograft survival
1,"CC(C)N1CCC(c2ccccc2)(c2ccccc2)CC1 [Prodipine, Pro-Pro-diphenyl-phosphonate]",double cardiac allograft survival

# System: hematopoiesis
# Experiment: not given
# Settings: mouse, cyclophosphamide-induced neutropenia; WO 99/56753; cited from earlier work
row,Compound,hematopoiesis
1,CC(C)[C@H](N)C(=O)N1CCC[C@H]1B(O)O [Val-Boro-Pro],stimulated hematopoiesis

# Target: DPP-4 (Homo sapiens, UniProt P27487)
# Experiment: not given
# Settings: cited from earlier work
# Sequence of DPP-4 (P27487 39-766 limits assumed, species assumed): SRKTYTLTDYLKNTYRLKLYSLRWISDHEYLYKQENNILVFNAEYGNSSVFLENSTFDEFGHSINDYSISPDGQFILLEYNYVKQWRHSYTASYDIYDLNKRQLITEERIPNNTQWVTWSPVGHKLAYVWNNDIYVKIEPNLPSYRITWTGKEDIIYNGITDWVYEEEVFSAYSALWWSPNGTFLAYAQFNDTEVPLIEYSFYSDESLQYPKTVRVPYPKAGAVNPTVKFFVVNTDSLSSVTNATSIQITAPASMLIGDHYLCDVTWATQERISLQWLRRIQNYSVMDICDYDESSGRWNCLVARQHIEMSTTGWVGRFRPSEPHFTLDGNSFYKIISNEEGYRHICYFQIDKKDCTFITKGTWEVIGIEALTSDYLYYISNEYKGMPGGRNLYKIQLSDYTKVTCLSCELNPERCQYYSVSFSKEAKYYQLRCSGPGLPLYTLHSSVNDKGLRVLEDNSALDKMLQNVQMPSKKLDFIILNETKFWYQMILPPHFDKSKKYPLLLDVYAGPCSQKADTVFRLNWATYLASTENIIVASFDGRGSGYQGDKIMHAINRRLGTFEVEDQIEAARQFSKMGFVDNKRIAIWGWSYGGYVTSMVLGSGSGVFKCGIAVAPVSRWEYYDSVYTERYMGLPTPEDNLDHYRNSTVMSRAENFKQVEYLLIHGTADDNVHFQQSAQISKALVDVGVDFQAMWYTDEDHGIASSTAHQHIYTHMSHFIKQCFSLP
row,Compound,degradation of GRF in plasma to GRF[3-44]
1,diprotin A,prevented
